Source: ChEMBL document CHEMBL5465560, “Selectivity Literature for EUbOPEN Chemogenomic Library” (2024)

Tests used:
[1] = target: T1, Megakaryocyte-associated tyrosine-protein kinase (Homo sapiens) (UniProt P42679); assay: Selectivity interaction (KinomeScan (DiscoverX)) EUB0000229b MATK; details: at 10 µM
T1 sequence (whole entry): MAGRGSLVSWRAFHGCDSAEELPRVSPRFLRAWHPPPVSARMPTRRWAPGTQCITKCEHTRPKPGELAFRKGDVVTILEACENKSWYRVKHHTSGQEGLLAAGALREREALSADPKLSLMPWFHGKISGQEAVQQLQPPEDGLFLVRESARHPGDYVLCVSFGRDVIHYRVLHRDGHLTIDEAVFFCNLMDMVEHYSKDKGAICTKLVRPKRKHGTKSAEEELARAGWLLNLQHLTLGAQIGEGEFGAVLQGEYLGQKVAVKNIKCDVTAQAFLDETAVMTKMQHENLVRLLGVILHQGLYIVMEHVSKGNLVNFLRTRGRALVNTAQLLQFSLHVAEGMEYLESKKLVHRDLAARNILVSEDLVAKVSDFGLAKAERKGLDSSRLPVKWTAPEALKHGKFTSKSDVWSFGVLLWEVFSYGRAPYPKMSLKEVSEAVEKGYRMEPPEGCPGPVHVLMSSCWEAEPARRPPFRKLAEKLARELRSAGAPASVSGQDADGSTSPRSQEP

[2] = target: T2, Dual specificity mitogen-activated protein kinase kinase 3 (Homo sapiens) (UniProt P46734); assay: Selectivity interaction (KinomeScan (DiscoverX)) EUB0000655a MAP2K3; details: at 10 µM
T2 sequence (whole entry): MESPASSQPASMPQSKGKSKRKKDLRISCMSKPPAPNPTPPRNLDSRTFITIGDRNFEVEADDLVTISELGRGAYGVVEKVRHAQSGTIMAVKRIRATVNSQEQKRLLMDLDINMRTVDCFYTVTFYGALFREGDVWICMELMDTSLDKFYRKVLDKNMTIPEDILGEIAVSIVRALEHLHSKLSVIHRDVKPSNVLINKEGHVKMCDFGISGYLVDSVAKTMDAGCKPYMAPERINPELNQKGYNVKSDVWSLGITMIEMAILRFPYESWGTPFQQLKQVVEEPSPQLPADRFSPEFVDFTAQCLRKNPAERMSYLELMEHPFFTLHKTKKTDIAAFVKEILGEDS

[3] = target: Serine/threonine-protein kinase NIM1 (Homo sapiens, UniProt Q8IY84); details: at 10 µM
Sequence of Serine/threonine-protein kinase NIM1 (Q8IY84 whole entry): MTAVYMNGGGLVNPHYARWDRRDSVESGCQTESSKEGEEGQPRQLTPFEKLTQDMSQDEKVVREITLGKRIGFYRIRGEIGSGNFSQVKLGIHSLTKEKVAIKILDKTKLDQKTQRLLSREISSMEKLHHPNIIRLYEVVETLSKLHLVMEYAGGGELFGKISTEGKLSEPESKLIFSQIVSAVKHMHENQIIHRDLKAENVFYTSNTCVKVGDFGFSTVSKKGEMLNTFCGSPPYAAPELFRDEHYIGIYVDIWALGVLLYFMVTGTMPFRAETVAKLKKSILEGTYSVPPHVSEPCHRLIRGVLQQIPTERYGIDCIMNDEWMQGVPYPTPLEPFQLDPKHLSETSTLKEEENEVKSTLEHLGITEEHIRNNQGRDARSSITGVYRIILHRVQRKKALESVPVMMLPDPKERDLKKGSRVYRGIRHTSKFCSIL

[4] = target: Serine/threonine-protein kinase 26 (Homo sapiens, UniProt Q9P289); assay: Selectivity interaction (Kinase panel (Z-LYTE Assay)) EUB0001632a STK26; details: at 10 µM
Sequence of Serine/threonine-protein kinase 26 (Q9P289 2-416 limits assumed): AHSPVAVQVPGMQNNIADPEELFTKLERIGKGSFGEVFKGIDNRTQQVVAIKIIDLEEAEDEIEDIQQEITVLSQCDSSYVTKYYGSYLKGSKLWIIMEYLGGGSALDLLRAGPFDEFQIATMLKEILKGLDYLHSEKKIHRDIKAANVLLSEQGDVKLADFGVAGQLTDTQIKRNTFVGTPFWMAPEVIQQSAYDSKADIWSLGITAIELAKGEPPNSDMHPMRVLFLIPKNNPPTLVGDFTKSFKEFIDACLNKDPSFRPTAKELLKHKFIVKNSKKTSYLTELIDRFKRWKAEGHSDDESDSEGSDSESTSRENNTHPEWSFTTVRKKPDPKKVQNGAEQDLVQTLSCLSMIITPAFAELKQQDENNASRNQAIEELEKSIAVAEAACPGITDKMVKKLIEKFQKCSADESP

[5] = target: Histone acetyltransferase KAT2A (Homo sapiens) (UniProt Q92830); assay: Selectivity interaction (Bromodomain panel (DSF asssay)) EUB0000270b KAT2A
[6] = target: Vascular endothelial growth factor receptor 2 (Homo sapiens, UniProt P35968)
Sequence of Vascular endothelial growth factor receptor 2 (P35968 whole entry): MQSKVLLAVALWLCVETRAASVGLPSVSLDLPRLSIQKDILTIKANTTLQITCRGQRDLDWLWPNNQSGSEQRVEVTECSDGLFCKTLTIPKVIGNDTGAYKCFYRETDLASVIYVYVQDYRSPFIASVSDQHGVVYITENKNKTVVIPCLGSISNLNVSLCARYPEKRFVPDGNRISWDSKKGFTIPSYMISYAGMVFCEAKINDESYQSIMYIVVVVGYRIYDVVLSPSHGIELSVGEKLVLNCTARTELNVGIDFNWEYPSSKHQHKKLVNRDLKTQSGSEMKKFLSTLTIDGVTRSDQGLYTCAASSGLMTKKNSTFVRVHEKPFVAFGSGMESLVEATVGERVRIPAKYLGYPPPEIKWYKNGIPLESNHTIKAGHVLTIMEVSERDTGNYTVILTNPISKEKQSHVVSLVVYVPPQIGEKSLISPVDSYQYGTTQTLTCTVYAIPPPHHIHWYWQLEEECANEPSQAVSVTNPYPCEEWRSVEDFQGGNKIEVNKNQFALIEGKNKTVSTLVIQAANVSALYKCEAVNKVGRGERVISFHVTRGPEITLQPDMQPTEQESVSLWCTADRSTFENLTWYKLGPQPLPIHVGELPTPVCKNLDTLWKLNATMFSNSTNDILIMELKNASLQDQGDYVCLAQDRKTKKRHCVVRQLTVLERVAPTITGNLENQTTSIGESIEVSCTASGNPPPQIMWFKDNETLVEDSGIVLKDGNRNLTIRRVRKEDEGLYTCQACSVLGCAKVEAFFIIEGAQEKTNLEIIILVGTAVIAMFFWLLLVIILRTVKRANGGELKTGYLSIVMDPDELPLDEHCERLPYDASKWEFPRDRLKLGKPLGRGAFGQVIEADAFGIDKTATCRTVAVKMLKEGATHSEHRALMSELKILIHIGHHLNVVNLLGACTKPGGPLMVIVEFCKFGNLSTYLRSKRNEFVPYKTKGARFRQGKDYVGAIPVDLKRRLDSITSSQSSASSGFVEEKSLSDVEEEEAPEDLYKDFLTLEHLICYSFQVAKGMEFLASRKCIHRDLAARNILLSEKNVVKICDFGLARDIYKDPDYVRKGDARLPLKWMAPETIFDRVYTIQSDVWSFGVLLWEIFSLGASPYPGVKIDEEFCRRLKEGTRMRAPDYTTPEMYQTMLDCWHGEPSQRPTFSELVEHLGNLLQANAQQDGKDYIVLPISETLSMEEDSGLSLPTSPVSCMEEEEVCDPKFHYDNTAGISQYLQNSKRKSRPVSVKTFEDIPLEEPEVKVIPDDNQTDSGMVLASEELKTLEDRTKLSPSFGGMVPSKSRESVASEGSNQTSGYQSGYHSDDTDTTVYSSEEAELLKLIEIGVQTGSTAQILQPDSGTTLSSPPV

[7] = target: Serine/threonine-protein kinase MARK2 (Homo sapiens) (UniProt Q7KZI7); assay: Selectivity interaction (ActivX KiNativ screen (kinase selectivity in THP-1 cell lysates)) EUB0000639a MARK2; format: subcellular; details: lysate, at 5 µM
Sequence of Serine/threonine-protein kinase MARK2 (Homo sapiens) (Q7KZI7 whole entry): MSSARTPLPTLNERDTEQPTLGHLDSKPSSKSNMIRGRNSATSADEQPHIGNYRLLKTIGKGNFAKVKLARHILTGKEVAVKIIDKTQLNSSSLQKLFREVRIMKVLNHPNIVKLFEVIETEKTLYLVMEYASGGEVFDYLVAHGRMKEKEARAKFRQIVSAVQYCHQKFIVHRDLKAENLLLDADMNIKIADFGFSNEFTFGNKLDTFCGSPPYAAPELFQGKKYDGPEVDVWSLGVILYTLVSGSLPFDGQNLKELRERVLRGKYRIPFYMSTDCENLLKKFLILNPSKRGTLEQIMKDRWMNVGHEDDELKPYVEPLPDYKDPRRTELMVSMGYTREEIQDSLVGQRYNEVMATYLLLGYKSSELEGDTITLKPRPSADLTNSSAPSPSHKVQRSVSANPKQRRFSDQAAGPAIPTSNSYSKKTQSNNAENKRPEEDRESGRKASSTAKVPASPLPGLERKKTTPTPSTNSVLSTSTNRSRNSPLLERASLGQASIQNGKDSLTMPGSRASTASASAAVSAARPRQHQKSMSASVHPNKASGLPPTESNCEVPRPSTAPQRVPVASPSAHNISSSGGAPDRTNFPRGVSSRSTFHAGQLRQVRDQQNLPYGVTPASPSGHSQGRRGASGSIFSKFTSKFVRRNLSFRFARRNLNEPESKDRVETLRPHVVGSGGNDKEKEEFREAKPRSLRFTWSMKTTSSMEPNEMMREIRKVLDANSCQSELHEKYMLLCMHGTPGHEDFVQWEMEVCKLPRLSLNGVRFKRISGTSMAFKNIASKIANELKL

[8] = target: SRSF protein kinase 3 (Homo sapiens) (UniProt Q9UPE1); assay: Selectivity interaction (Kinase panel (Invitrogen)) EUB0000639a SRPK3; details: at 200 nM
Sequence of SRSF protein kinase 3 (Homo sapiens) (Q9UPE1 whole entry): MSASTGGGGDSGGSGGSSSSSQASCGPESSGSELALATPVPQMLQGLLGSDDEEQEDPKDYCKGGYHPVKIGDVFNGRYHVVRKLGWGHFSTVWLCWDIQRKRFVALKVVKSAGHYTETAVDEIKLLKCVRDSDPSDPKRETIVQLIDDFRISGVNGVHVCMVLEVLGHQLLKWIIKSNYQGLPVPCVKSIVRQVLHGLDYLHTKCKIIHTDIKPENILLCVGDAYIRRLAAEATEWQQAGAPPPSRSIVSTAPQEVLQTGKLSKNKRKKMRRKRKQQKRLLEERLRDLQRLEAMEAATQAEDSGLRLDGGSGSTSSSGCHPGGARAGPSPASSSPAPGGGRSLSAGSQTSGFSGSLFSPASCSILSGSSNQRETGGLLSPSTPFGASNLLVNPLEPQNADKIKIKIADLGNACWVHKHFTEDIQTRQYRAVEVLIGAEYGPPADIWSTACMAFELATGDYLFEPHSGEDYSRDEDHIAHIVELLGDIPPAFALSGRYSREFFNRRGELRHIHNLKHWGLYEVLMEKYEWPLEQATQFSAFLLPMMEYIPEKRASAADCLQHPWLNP

[9] = target: Tyrosine-protein kinase HCK (Homo sapiens) (UniProt P08631); assay: Selectivity interaction (KinomeScan (DiscoverX)) EUB0001049a HCK; details: at 1 µM
[10] = target: T3, Protein kinase C iota type (Homo sapiens) (UniProt P41743); assay: Selectivity interaction (KinomeScan (DiscoverX)) EUB0001049a PRKCI; details: at 1 µM
T3 sequence (whole entry): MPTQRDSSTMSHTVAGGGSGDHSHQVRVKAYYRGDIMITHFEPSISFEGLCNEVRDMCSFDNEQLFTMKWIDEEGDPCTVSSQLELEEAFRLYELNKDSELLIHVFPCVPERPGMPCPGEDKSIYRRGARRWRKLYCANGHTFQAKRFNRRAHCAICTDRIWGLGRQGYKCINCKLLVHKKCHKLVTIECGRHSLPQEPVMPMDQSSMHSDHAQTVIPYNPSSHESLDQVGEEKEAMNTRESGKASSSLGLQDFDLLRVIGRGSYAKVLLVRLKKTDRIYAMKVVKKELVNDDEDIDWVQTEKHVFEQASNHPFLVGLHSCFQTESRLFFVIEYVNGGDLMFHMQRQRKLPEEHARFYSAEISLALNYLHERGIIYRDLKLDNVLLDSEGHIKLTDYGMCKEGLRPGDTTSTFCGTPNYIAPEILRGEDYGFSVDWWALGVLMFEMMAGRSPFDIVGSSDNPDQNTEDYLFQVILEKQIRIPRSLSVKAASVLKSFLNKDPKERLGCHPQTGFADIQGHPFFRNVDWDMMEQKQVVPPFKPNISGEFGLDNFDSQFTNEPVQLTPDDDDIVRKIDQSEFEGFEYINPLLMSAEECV

[11] = target: Serine/threonine-protein kinase MARK1 (Homo sapiens) (UniProt Q9P0L2); assay: Selectivity interaction (KinomeScan (DiscoverX)) EUB0000695a MARK1; details: at 100 nM
[12] = target: Serine/threonine-protein kinase PAK 6 (Homo sapiens) (UniProt Q9NQU5); assay: Selectivity interaction (KinomeScan (DiscoverX)) EUB0000618a PAK6; details: at 10 µM
[13] = target: T4, Histone-arginine methyltransferase CARM1 (Homo sapiens) (UniProt Q86X55); details: at 1 µM
T4 sequence (whole entry): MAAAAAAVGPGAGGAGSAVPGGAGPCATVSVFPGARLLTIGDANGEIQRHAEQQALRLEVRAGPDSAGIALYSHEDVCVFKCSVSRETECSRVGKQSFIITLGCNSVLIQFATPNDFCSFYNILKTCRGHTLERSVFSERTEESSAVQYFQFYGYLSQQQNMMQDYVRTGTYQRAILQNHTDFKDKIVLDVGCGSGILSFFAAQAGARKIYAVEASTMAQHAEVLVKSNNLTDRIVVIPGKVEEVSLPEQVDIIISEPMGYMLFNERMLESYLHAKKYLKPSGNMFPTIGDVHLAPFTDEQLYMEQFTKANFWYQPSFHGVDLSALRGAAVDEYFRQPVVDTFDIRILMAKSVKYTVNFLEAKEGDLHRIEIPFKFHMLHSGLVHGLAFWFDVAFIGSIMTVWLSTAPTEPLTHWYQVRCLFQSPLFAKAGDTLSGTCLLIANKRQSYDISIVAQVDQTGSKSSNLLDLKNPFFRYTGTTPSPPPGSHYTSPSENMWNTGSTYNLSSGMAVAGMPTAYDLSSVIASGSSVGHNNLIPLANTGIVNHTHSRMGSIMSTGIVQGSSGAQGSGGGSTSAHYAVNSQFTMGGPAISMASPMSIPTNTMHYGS

[14] = target: Tyrosine-protein kinase receptor UFO (Homo sapiens) (UniProt P30530); assay: Selectivity interaction (KinomeScan (DiscoverX)) EUB0001619a AXL; details: at 1 µM
Sequence of Tyrosine-protein kinase receptor UFO (Homo sapiens) (P30530 whole entry, canonical isoform): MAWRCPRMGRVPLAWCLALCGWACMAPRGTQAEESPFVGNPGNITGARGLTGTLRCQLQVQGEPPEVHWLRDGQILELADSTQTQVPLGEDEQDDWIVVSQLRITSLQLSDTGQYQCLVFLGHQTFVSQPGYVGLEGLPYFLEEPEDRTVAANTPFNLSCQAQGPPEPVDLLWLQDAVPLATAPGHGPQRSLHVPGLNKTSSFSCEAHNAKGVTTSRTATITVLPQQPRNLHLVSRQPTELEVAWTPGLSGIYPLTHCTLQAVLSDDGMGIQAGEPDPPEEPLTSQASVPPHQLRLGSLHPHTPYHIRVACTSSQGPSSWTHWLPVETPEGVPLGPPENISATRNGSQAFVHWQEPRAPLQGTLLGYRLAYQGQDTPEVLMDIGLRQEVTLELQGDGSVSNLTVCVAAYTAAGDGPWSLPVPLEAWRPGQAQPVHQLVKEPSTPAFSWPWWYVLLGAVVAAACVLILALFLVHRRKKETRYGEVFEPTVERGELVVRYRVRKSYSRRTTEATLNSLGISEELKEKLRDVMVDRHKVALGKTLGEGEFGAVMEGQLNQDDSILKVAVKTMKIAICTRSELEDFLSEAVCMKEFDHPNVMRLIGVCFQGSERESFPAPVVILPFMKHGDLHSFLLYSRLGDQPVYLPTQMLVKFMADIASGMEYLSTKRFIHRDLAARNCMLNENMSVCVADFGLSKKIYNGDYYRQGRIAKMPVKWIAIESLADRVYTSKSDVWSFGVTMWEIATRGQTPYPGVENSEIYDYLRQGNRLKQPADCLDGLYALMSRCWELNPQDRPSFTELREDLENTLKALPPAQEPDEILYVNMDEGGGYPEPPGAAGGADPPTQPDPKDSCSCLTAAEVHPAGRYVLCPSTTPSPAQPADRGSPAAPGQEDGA

[15] = target: Casein kinase I isoform gamma-1 (Homo sapiens) (UniProt Q9HCP0); assay: Selectivity interaction (KinomeScan (DiscoverX)) EUB0001619a CSNK1G1; details: at 1 µM
Sequence of Casein kinase I isoform gamma-1 (Homo sapiens) (Q9HCP0 whole entry, looked up, canonical isoform): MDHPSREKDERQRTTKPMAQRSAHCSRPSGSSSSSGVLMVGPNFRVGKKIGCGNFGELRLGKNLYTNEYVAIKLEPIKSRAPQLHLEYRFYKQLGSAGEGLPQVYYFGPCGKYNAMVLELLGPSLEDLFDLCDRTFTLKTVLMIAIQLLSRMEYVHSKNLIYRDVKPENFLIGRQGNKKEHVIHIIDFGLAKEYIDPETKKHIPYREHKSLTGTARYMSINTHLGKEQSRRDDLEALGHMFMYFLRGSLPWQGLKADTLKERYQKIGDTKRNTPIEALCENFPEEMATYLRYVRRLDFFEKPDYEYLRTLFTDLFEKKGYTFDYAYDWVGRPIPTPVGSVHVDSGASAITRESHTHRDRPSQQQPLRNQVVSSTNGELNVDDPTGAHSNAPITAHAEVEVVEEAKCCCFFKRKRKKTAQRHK

For `COc1cc(N(C)c2ccnc3ccc(C(F)(F)F)cc23)cc(OC)c1OC`, the % binding [1] was 81%.

For `CN(C)CCOc1ccc(-c2nc(-c3ccncc3)c(-c3ccc4c(c3)CC/C4=N\O)[nH]2)cc1`, the % of control [2] was 84%.

`Cc1cc([C@@H](C)Nc2ccccc2C(=O)O)c2nc(N3CCOCC3)cc(=O)n2c1` [AZD-6482] gave a % of control [3] of 100%.

With `Cn1cc(-n2cnc3c(NCc4nc5cc(Cl)c(Cl)cc5[nH]4)nc(N4CCOCC4)nc32)cn1` the % of control [4] was 2.09%.

For `Cc1cc(CN)cc(C)c1-c1ncn(C)c1-c1cncn1C`, the dTM [5] was -2.29 K.

With `CCc1cccc(CC)c1NC(=O)c1nn(C)c2c1CCc1cnc(Nc3ccc(C(=O)NC4CCN(C)CC4)cc3OC(F)(F)F)nc1-2` the IC50 [6] was over 10 µM.

`CC[C@@H]1[C@H](F)C(=O)N[C@@H]1COc1nccc2cc(C(N)=O)c(OC)cc12` [ZIMLOVISERTIB] gave a % of inhibition [7] of 48.9% and a % of inhibition [8] of 8.65%.

Work on `COc1cc(Nc2nc(C)cc(-c3cnn4nc(OC)ccc34)n2)cc(C(F)(F)F)c1` yielded a % of control [9] of 100% and a % of control [10] of 79%.

Work on `Cc1cc(F)c(C(=O)Nc2cccc(-c3nncn3C(C)C)n2)cc1-n1cnc(C2CC2)c1` yielded a % of control [11] of 100%.

For `O[C@H]1CC[C@H](Nc2ncc3nc(Nc4c(F)cc(F)cc4F)n([C@H]4CCOC4)c3n2)CC1`, the % of control [12] was 100%.

Compound `CNCCN1CCC(c2cc(CN(C)C(=O)c3cccc(Oc4ccccc4)c3)ccn2)CC1` has a % activity [13] of 75%.

`N#Cc1cccc(-c2c[nH]c3ncnc(N4CCOCC4)c23)c1` was tested, and the % of control [14] was 99% and the % of control [15] was 100%.
